In the supplement of paper PMC11208160:

Test: recombinant UMI read abundance after kanamycin selection (control-corrected) (log10(CPM+1)); higher = more efficient recombination; extreme values may be limits of the assay; sequences stand for … in AGTGCAGAGAAAATCGGCCAGTTTTCTCTGCCTGCAGTCCGCATGCCGTGGGACCCCTTGGGTTCTAACCTGTTGCCTAGATTTATGCAGCGGACTGCCTTTCTCCCAAAGTGATAAACCGG…AGGTTGGTTTCACT; site = the 11-nt donor
How it was run: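 Each donor and donor-binding-loop pair was tracked by a 12-nt UMI on a plasmid carrying a promoterless kanamycin gene. With a second plasmid supplying a fixed target and T7-inducible IS621 bridge recombinase, the pool was plated in Escherichia coli on IPTG (0.07 mM) plus kanamycin or unselected. Sequencing of recombinant UMIs across the donor–target junction gave counts expressed as log10(CPM+1) after replicate averaging and control-derived scaling.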
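Note: IS621 bridge recombinase in Escherichia coli cells against a fixed T5 target plasmid.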

First: TCATACTCATGGACCGGTTTTCCCGGTAATCCGTATTTGCG (site TCATACTCTCG)
Second: TCATACTCATGGACCGGTTTTCCCGGTAATCCGTATTTGCG (site TCATACTCTGG)
The “recombinant UMI read abundance (log10)” value of the first is higher: 2.57 for the first, 0.0107 for the second.

First: TCATACTCATGGACCGGTTTTCCCGGTAATCCGTATTTGCG (site TCATACTCTTG)
Second: TCATAGGCATGGACCGGTTTTCCCGGTAATCCGTATTTGAG (site TCATAGGCTCT)
The “recombinant UMI read abundance (log10)” value of the first is higher: 2.1 for the first, 1.46 for the second.

First: TCATCTTCATGGACCGGTTTTCCCGGTAATCCGTATTTGGT (site TCATCTTCTAC)
Second: TCATGACCATGGACCGGTTTTCCCGGTAATCCGTATTTGCC (site TCATGACCTGG)
The “recombinant UMI read abundance (log10)” value of the first is higher: 0.467 for the first, 0 for the second.

“TCATGACCATGGACCGGTTTTCCCGGTAATCCGTATTTGCG (site TCATGACCTCG)” and “TCATGAGCATGGACCGGTTTTCCCGGTAATCCGTATTTGGG (site TAATGAGCTCC)” are within 0.2 log units of each other in “recombinant UMI read abundance (log10)” value: 0.00794 for the first, 0.0178 for the second.

“TCATGAGCATGGACCGGTTTTCCCGGTAATCCGTATTTGGG (site TCATGAGCTCC)” and “TCATGAGCATGGACCGGTTTTCCCGGTAATCCGTATTTGGG (site TGATGAGCTCC)” are within 0.2 log units of each other in “recombinant UMI read abundance (log10)” value: 0.0121 for the first, 0.00797 for the second.

“TCATGAGCATGGACCGGTTTTCCCGGTAATCCGTATTTGGG (site TTATGAGCTCC)” and “TCATGTCCATGGACCGGTTTTCCCGGTAATCCGTATTTGTG (site TCATGTCCTCA)” are within 0.2 log units of each other in “recombinant UMI read abundance (log10)” value: 0.00944 for the first, 0 for the second.

Compared with “TCATTCTCATGGACCGGTTTTCCCGGTAATCCGTATTTGCA (site TCATACTCTTG)”, “TCATTCTCATGGACCGGTTTTCCCGGTAATCCGTATTTGCA (site TCATCCTCTTG)” is lower in “recombinant UMI read abundance (log10)” value: 1.25 for the first, 0 for the second.

Compared with “TCATTCTCATGGACCGGTTTTCCCGGTAATCCGTATTTGCA (site TCATGCTCTTG)”, “TCATTCTCATGGACCGGTTTTCCCGGTAATCCGTATTTGCA (site TCATTCTCTTG)” is higher in “recombinant UMI read abundance (log10)” value: 0.00845 for the first, 1.41 for the second.

“TCCAAAGCATGGACCGGTTTTCCCGGTAATCCGTATTTGGA (site TCCAAAGCTTC)” and “TCCAAGTCATGGACCGGTTTTCCCGGTAATCCGTATTTGCC (site TCCAAATCTGG)” are within 0.2 log units of each other in “recombinant UMI read abundance (log10)” value: 0.0225 for the first, 0 for the second.

“TCCAAGTCATGGACCGGTTTTCCCGGTAATCCGTATTTGCC (site TCCAACTCTGG)” and “TCCAAGTCATGGACCGGTTTTCCCGGTAATCCGTATTTGCC (site TCCAAGTCTGG)” are the same in “recombinant UMI read abundance (log10)” value: 0 for the first, 0 for the second.

“TCCAAGTCATGGACCGGTTTTCCCGGTAATCCGTATTTGCC (site TCCAATTCTGG)” and “TCCAATTCATGGACCGGTTTTCCCGGTAATCCGTATTTGAC (site TCCAATTCTGA)” are the same in “recombinant UMI read abundance (log10)” value: 0 for the first, 0 for the second.

“TCCAATTCATGGACCGGTTTTCCCGGTAATCCGTATTTGAC (site TCCAATTCTGC)” and “TCCAATTCATGGACCGGTTTTCCCGGTAATCCGTATTTGAC (site TCCAATTCTGG)” are the same in “recombinant UMI read abundance (log10)” value: 0 for the first, 0 for the second.

“TCCAATTCATGGACCGGTTTTCCCGGTAATCCGTATTTGAC (site TCCAATTCTGT)” and “TCCAATTCATGGACCGGTTTTCCCGGTAATCCGTATTTGCT (site TCCAATTCTAG)” are the same in “recombinant UMI read abundance (log10)” value: 0 for the first, 0 for the second.

“TCCAATTCATGGACCGGTTTTCCCGGTAATCCGTATTTGCT (site TCCAATTCTCG)” and “TCCAATTCATGGACCGGTTTTCCCGGTAATCCGTATTTGCT (site TCCAATTCTGG)” are the same in “recombinant UMI read abundance (log10)” value: 0 for the first, 0 for the second.

“TCCAATTCATGGACCGGTTTTCCCGGTAATCCGTATTTGCT (site TCCAATTCTTG)” and “TCCACCGCATGGACCGGTTTTCCCGGTAATCCGTATTTGGG (site TCCACCGCTCA)” are within 0.2 log units of each other in “recombinant UMI read abundance (log10)” value: 0 for the first, 0.0369 for the second.

“TCCACCGCATGGACCGGTTTTCCCGGTAATCCGTATTTGGG (site TCCACCGCTCC)” and “TCCACCGCATGGACCGGTTTTCCCGGTAATCCGTATTTGGG (site TCCACCGCTCG)” are within 0.2 log units of each other in “recombinant UMI read abundance (log10)” value: 0.00928 for the first, 0.0231 for the second.

“TCCACCGCATGGACCGGTTTTCCCGGTAATCCGTATTTGGG (site TCCACCGCTCT)” and “TCCATCGCATGGACCGGTTTTCCCGGTAATCCGTATTTGCG (site TCCAACGCTCG)” are within 0.2 log units of each other in “recombinant UMI read abundance (log10)” value: 0.0189 for the first, 0 for the second.

“TCCATCGCATGGACCGGTTTTCCCGGTAATCCGTATTTGCG (site TCCACCGCTCG)” and “TCCATCGCATGGACCGGTTTTCCCGGTAATCCGTATTTGCG (site TCCAGCGCTCG)” are within 0.2 log units of each other in “recombinant UMI read abundance (log10)” value: 0.0339 for the first, 0.047 for the second.

“TCCATCGCATGGACCGGTTTTCCCGGTAATCCGTATTTGCG (site TCCATCGCTCG)” and “TCCCAATCATGGACCGGTTTTCCCGGTAATCCGTATTTGTT (site TCCCAATCTAA)” are within 0.2 log units of each other in “recombinant UMI read abundance (log10)” value: 0.00801 for the first, 0.00639 for the second.

“TCCCACCCATGGACCGGTTTTCCCGGTAATCCGTATTTGCA (site TCCCACCCTTG)” and “TCCCATACATGGACCGGTTTTCCCGGTAATCCGTATTTGGC (site TCCCATACTGC)” are the same in “recombinant UMI read abundance (log10)” value: 0 for the first, 0 for the second.

“TCCCCCGCATGGACCGGTTTTCCCGGTAATCCGTATTTGCG (site TCCACCGCTCG)” and “TCCCCCGCATGGACCGGTTTTCCCGGTAATCCGTATTTGCG (site TCCCCCGCTCG)” are within 0.2 log units of each other in “recombinant UMI read abundance (log10)” value: 0.00501 for the first, 0.0127 for the second.

“TCCCCCGCATGGACCGGTTTTCCCGGTAATCCGTATTTGCG (site TCCGCCGCTCG)” and “TCCCCCGCATGGACCGGTTTTCCCGGTAATCCGTATTTGCG (site TCCTCCGCTCG)” are within 0.2 log units of each other in “recombinant UMI read abundance (log10)” value: 0.0064 for the first, 0.00786 for the second.

“TCCCCTACATGGACCGGTTTTCCCGGTAATCCGTATTTGCC (site TCCCCTACTGG)” and “TCCCTTACATGGACCGGTTTTCCCGGTAATCCGTATTTGTA (site TCCCTTACTTA)” are within 0.2 log units of each other in “recombinant UMI read abundance (log10)” value: 0 for the first, 0.0182 for the second.

Compared with “TCCCTTGCATGGACCGGTTTTCCCGGTAATCCGTATTTGGT (site TCCCTTGCTAC)”, “TCCGACGCATGGACCGGTTTTCCCGGTAATCCGTATTTGCT (site TCCGACGCTAG)” is higher in “recombinant UMI read abundance (log10)” value: 0 for the first, 0.968 for the second.

“TCCGGAACATGGACCGGTTTTCCCGGTAATCCGTATTTGCT (site TCCGGAACTAG)” and “TCCGGGTCATGGACCGGTTTTCCCGGTAATCCGTATTTGAC (site GGAATCGCTAG)” are the same in “recombinant UMI read abundance (log10)” value: 0 for the first, 0 for the second.

“TCCGGTCCATGGACCGGTTTTCCCGGTAATCCGTATTTGCA (site ACCGGTCCTTG)” and “TCCGGTCCATGGACCGGTTTTCCCGGTAATCCGTATTTGCA (site CCCGGTCCTTG)” are the same in “recombinant UMI read abundance (log10)” value: 0 for the first, 0 for the second.

“TCCGGTCCATGGACCGGTTTTCCCGGTAATCCGTATTTGCA (site GCCGGTCCTTG)” and “TCCGGTCCATGGACCGGTTTTCCCGGTAATCCGTATTTGCA (site TCCGGTCCTTG)” are the same in “recombinant UMI read abundance (log10)” value: 0 for the first, 0 for the second.

“TCCTACGCATGGACCGGTTTTCCCGGTAATCCGTATTTGCC (site TCCTACGCTGG)” and “TCCTCCACATGGACCGGTTTTCCCGGTAATCCGTATTTGGT (site TCCTCCACTAC)” are within 0.2 log units of each other in “recombinant UMI read abundance (log10)” value: 0 for the first, 0.0263 for the second.

“TCCTCGCCATGGACCGGTTTTCCCGGTAATCCGTATTTGTT (site TCCTCGCCTAA)” and “TCCTGAACATGGACCGGTTTTCCCGGTAATCCGTATTTGCT (site TCCTGAACTAG)” are within 0.2 log units of each other in “recombinant UMI read abundance (log10)” value: 0.0142 for the first, 0 for the second.

“TCCTGGCCATGGACCGGTTTTCCCGGTAATCCGTATTTGTA (site TCCTGGCCTTA)” and “TCCTTACCATGGACCGGTTTTCCCGGTAATCCGTATTTGGA (site TCCTTACCTTC)” are within 0.2 log units of each other in “recombinant UMI read abundance (log10)” value: 0.0229 for the first, 0.00485 for the second.

“TCCTTCGCATGGACCGGTTTTCCCGGTAATCCGTATTTGCT (site GATCCACCTTC)” and “TCGAAAACATGGACCGGTTTTCCCGGTAATCCGTATTTGCT (site ACGAAAACTAG)” are within 0.2 log units of each other in “recombinant UMI read abundance (log10)” value: 0.0105 for the first, 0 for the second.

Compared with “TCGAAAACATGGACCGGTTTTCCCGGTAATCCGTATTTGCT (site CCGAAAACTAG)”, “TCGAAAACATGGACCGGTTTTCCCGGTAATCCGTATTTGCT (site GCGAAAACTAG)” is lower in “recombinant UMI read abundance (log10)” value: 0.679 for the first, 0 for the second.

First: TCGAAAACATGGACCGGTTTTCCCGGTAATCCGTATTTGCT (site TCGAAAACTAG)
Second: TCGAAGTCATGGACCGGTTTTCCCGGTAATCCGTATTTGCG (site TCGAAGTCTCG)
The “recombinant UMI read abundance (log10)” value of the first is lower: 0 for the first, 1.9 for the second.

Going from “TCGACGGCATGGACCGGTTTTCCCGGTAATCCGTATTTGAC (site TCGACGGCTGT)” to “TCGACGGCATGGACCGGTTTTCCCGGTAATCCGTATTTGTG (site TCGACGGCTCA)”, the “recombinant UMI read abundance (log10)” value rises from 0.0562 to 0.539.

“TCGATAGCATGGACCGGTTTTCCCGGTAATCCGTATTTGGG (site TCGATAGCTCC)” and “TCGATGGCATGGACCGGTTTTCCCGGTAATCCGTATTTGCC (site TCGATGGCTGG)” are within 0.2 log units of each other in “recombinant UMI read abundance (log10)” value: 0.00329 for the first, 0 for the second.

Going from “TCGATGTCATGGACCGGTTTTCCCGGTAATCCGTATTTGTA (site TCGATGTCTTA)” to “TCGATGTCATGGACCGGTTTTCCCGGTAATCCGTATTTGTG (site TCGATGTCTCA)”, the “recombinant UMI read abundance (log10)” value falls from 1.41 to 0.868.

“TCGCAAACATGGACCGGTTTTCCCGGTAATCCGTATTTGCC (site TCGCAAACTGG)” and “TCGCAACCATGGACCGGTTTTCCCGGTAATCCGTATTTGTT (site TCGCAACCTAA)” are the same in “recombinant UMI read abundance (log10)” value: 0 for the first, 0 for the second.

With “TCGCATGCATGGACCGGTTTTCCCGGTAATCCGTATTTGGT (site TCGCATGCTAC)” the “recombinant UMI read abundance (log10)” value was 0.656.
